Experimental findings from patent US10479780B2, “Aminopyrazole derivatives” (Chugai Seiyaku Kabushiki Kaisha, priority 2015, dated 2019) are described below.

Like-named read-outs stand apart in the source and are kept apart here.

What all share (format): biochemical
The target in test [1] is T1, human Yes1 enzyme (Homo sapiens, UniProt P07947).
T1 construct: made in house
The experiment in a line: Yes1 enzyme inhibitory activity (time-resolved fluorometry, biotinylated peptide phosphorylation). To be noted: read-out: YES_IC50. A digest of the protocol:
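Inhibition was expressed against a compound-free control to give IC50, using TR-FRET read-out (Eu-cryptate anti-pTyr antibody, streptavidin-XL665).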

In test [2] the target is T2, human Src enzyme (Homo sapiens, UniProt P12931).
T2 construct: purchased Carna Biosciences, Inc. 08-173
The experiment in a line: Src enzyme inhibitory activity (time-resolved fluorometry, biotinylated peptide phosphorylation). To be noted: read-out: SRC_IC50. A digest of the protocol:
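Compounds were tested for blocking tyrosine phosphorylation of a biotinylated peptide substrate by recombinant human Src. Phosphorylated product was quantified by time-resolved fluorometry using europium cryptate and XL665 conjugates, and IC50 was calculated against the compound-free control.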

The target of test [3] is T3, human Lck enzyme (Homo sapiens, UniProt P06239).
T3 construct: purchased Carna Biosciences, Inc. 08-170
Nature of the test: Lck enzyme inhibitory activity (time-resolved fluorometry, biotinylated peptide phosphorylation). The conditions noted are these: read-out: LCK_IC50. The method in brief:
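Readout pairs a europium cryptate-labelled anti-phosphotyrosine antibody with XL665-streptavidin, measured by time-resolved fluorescence. IC50 derived from percent inhibition against untreated controls.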

Where [4] appears, read: biotinylated peptide phosphorylation.

T3 sequence (P06239 whole entry): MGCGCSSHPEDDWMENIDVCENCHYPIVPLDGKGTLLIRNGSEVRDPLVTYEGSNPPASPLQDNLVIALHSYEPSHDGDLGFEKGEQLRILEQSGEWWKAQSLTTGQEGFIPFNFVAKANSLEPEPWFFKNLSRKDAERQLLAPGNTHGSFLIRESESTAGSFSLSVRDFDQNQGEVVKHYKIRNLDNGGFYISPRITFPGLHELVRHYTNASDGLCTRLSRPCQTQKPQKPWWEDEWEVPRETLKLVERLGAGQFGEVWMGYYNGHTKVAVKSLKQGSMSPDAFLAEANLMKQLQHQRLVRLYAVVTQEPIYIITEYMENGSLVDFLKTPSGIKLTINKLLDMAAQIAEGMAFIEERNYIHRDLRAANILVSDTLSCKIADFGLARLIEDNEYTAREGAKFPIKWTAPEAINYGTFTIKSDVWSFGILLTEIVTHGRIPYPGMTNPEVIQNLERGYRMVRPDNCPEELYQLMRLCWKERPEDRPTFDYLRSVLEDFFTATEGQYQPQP
T2 sequence (P12931 whole entry): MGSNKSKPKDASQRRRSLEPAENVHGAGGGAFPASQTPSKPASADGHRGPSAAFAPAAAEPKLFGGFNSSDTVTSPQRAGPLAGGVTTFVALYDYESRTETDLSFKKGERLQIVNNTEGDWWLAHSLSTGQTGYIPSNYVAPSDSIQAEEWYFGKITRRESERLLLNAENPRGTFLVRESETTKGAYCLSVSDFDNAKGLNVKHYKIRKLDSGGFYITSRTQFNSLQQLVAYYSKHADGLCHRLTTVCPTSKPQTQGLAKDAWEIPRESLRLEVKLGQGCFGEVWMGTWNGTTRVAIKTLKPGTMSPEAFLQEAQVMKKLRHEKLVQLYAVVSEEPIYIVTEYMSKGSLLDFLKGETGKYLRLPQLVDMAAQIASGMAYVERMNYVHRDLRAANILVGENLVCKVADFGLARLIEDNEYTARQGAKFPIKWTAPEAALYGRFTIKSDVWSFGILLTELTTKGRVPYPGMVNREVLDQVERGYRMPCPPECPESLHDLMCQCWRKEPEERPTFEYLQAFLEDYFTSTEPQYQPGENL
T1 sequence (P07947 whole entry): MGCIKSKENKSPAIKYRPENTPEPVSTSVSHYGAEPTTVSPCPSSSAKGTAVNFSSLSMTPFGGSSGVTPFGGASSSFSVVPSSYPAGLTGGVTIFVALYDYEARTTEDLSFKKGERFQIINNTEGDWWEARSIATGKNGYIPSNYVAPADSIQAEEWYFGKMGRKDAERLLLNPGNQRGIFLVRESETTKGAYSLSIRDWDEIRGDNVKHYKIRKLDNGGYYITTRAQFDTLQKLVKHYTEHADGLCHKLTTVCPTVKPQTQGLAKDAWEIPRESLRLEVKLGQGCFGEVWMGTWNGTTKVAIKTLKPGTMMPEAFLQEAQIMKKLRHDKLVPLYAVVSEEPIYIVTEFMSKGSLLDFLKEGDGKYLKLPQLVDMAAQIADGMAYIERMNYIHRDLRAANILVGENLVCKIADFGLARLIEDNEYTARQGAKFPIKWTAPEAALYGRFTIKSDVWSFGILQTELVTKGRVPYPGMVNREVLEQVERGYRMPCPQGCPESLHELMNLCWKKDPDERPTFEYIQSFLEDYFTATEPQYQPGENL

In the case of `Cc1cc(Oc2ccccc2F)ccc1-n1ncc(C(=O)c2cc3cc(N4CCOCC4)c(N4CCN(S(C)(=O)=O)CC4)cc3[nH]2)c1N` [Example 5-1-093, [5-amino-1-[4-(2-fluorophenoxy)-2-methylphenyl]pyrazol-4-yl]-[6-(4-methylsulfonylpiperazin-1-yl)-5-morpholin-4-yl-1H-indol-2-yl]methanone], the figures for the IC50 in test [1], in test [2] and in test [3] were 0.0018 µM, 0.011 µM and 0.0037 µM, respectively.

As for `COc1cc2cc(C(=O)c3cnn(-c4ccc(Oc5ccccc5F)cc4C)c3N)[nH]c2cc1NS(C)(=O)=O` [Example 4-1-004, N-[2-[5-Amino-1-[4-(2-fluorophenoxy)-2-methylphenyl]pyrazole-4-carbonyl]-5-methoxy-1H-indol-6-yl]methanesulfonamide], the IC50 in test [1] (setting [4]) was 0.00052 µM; in test [2] (setting [4]), 0.021 µM; in test [3] (setting [4]), 0.0034 µM.

As for `Cc1ccccc1Oc1cc(C)c(-n2ncc(C(=O)c3cc4cc(F)c(NS(C)(=O)=O)cc4[nH]3)c2N)cn1` [Example 4-2-036, N-[2-[5-amino-1-[4-methyl-6-(2-methylphenoxy)pyridin-3-yl]pyrazole-4-carbonyl]-5-fluoro-1H-indol-6-yl]methanesulfonamide], the IC50 in test [1] (setting [4]) stood at 0.0015 µM; in test [2] (setting [4]) it was 0.06 µM; in test [3] (setting [4]), 0.021 µM.

Regarding `Cc1cc(Oc2ccccc2F)ncc1-n1ncc(C(=O)c2cc3cc(F)c(NS(=O)(=O)NC4CC4)cc3[nH]2)c1N` [Example 5-1-020, [5-amino-1-[6-(2-fluorophenoxy)-4-methylpyridin-3-yl]pyrazol-4-yl]-[6-(cyclopropylsulfamoylamino)-5-fluoro-1H-indol-2-yl]methanone], the IC50 was 0.0057 µM in test [1], 0.19 µM in test [2] and 0.051 µM in test [3].

For the molecule `COc1cc2cc(C(=O)c3cnn(-c4c(C)cc(Oc5ccccc5F)cc4F)c3N)[nH]c2cc1NS(=O)(=O)CC(=O)N1CCOCC1` [Example 4-10-013, N-[2-[5-amino-1-[2-fluoro-4-(2-fluorophenoxy)-6-methylphenyl]pyrazole-4-carbonyl]-5-methoxy-1H-indol-6-yl]-2-morpholin-4-yl-2-oxoethanesulfonamide], the IC50 in test [1] (setting [4]) turned out to be 0.0012 µM; in test [2] (setting [4]), 0.029 µM; in test [3] (setting [4]), 0.011 µM.

On to `Cc1cc(-n2ncc(C(=O)c3cc4cc(OC5CCN(C6CCCC6)CC5)c(Br)cc4[nH]3)c2N)ccc1Oc1ccccc1F` [Example 5-1-216, [5-amino-1-[4-(2-fluorophenoxy)-3-methylphenyl]pyrazol-4-yl]-[6-bromo-5-(1-cyclopentylpiperidin-4-yl)oxy-1H-indol-2-yl] methanone], for which the values for the IC50 in test [1], in test [2] and in test [3] were 0.0017 µM, 1 µM and 0.047 µM, respectively.

In the case of `Cc1cc(Oc2ccccc2F)ncc1-n1ncc(C(=O)c2cc3cc(F)c(NS(C)(=O)=O)cc3[nH]2)c1N` [Example 4-7-001, N-{2-{5-amino-1-[6-(2-fluorophenoxy)-4-methylpyridin-3-yl]pyrazole-4-carbonyl}-5-fluoro-1H-indol-6-yl}methanesulfonamide], the IC50 in test [1] (setting [4]) is 0.0022 µM; in test [2] (setting [4]), 0.041 µM; in test [3] (setting [4]) it was 0.01 µM.

As to `Cc1cc(Oc2c(F)cccc2F)ncc1-n1ncc(C(=O)c2cc3cc(OC4CCN(C5CS(=O)(=O)C5)CC4)c(Br)cc3[nH]2)c1N` [Example 5-1-228, [5-amino-1-[6-(2,6-difluorophenoxy)-4-methylpyridin-3-yl]pyrazol-4-yl]-[6-bromo-5-[1-(1,1-dioxothietan-3-yl)piperidin-4-yl]oxy-1H-indol-2-yl]methanone], the IC50 in test [1] is 0.0013 µM; in test [2], 0.013 µM; in test [3], 0.0031 µM.

Regarding `Cc1cc2cc(C(=O)c3cnn(-c4ccc(Oc5cccc(F)c5F)cc4C)c3N)[nH]c2cc1NS(=O)(=O)CCCF` [Example 4-2-069, N-[2-[5-amino-1-[4-(2,3-difluorophenoxy)-2-methylphenyl]pyrazole-4-carbonyl]-5-methyl-1H-indol-6-yl]-3-fluoropropane-1-sulfonamide], the IC50 is 0.001 µM in test [1] (setting [4]), 0.067 µM in test [2] (setting [4]) and 0.022 µM in test [3] (setting [4]).

With `Cc1cc(Oc2ccccn2)ccc1-n1ncc(C(=O)c2cc3cc(F)c(NS(=O)(=O)CCCF)cc3[nH]2)c1N` [Example 4-2-017, N-[2-[5-amino-1-(2-methyl-4-pyridin-2-yloxyphenyl)pyrazole-4-carbonyl]-5-fluoro-1H-indol-6-yl]-3-fluoropropane-1-sulfonamide], the IC50 in test [1] (setting [4]) turned out to be 0.00055 µM; in test [2] (setting [4]), 0.026 µM; in test [3] (setting [4]), 0.017 µM.

In the case of `Cc1cc(Oc2c(F)cccc2F)ncc1-n1ncc(C(=O)c2cc3cc(F)c(NS(=O)(=O)c4cncc(F)c4)cc3[nH]2)c1N` [Example 5-1-548, N-[2-[5-amino-1-[6-(2,6-difluorophenoxy)-4-methylpyridin-3-yl]pyrazole-4-carbonyl]-5-fluoro-1H-indol-6-yl]-5-fluoropyridine-3-sulfonamide], the IC50 in test [1] (setting [4]) stood at 0.0076 µM; in test [2] (setting [4]), 0.64 µM; in test [3] (setting [4]), 0.078 µM.

For `Cc1cc2cc(C(=O)c3cnn(-c4ccc(Oc5ccccc5F)cc4C)c3N)[nH]c2cc1N1CCOCC1` [Example 4-2-122, [5-amino-1-[4-(2-fluorophenoxy)-2-methylphenyl]pyrazol-4-yl]-(5-methyl-6-morpholin-4-yl-1H-indol-2-yl)methanone], the IC50 in test [1] (setting [4]) is 0.0036 µM; in test [2] (setting [4]), 0.034 µM; in test [3] (setting [4]) it was 0.0073 µM.

`Cc1cc(Oc2ccccc2F)ccc1-n1ncc(C(=O)c2cc3cc(F)c(NS(=O)(=O)N4CCOCC4)cc3[nH]2)c1N` [Example 4-5-002, N-[2-[5-amino-1-[4-(2-fluorophenoxy)-2-methylphenyl]pyrazole-4-carbonyl]-5-fluoro-1H-indol-6-yl]morpholine-4-sulfonamide]: the values for the IC50 in test [1] (setting [4]), in test [2] (setting [4]) and in test [3] (setting [4]) were 0.00076 µM, 0.049 µM and 0.023 µM, respectively.

Regarding `Cc1cc(Oc2cc(F)cc(F)c2)nc(C)c1-n1ncc(C(=O)c2cc3cc(F)c(NS(C)(=O)=O)cc3[nH]2)c1N` [Example 5-1-054, N-[2-[5-amino-1-[6-(3,5-difluorophenoxy)-2,4-dimethylpyridin-3-yl]pyrazole-4-carbonyl]-5-fluoro-1H-indol-6-yl]methanesulfonamide], the IC50 in test [1] was determined as 0.15 µM; in test [2], 1 µM; in test [3], 0.35 µM.

Regarding `Cc1cc(Oc2ccccc2F)ccc1-n1ncc(C(=O)c2cc3cc(F)c(N4C(=O)N[C@@H](Cc5ccccc5)C4=O)cc3[nH]2)c1N` [Example 5-1-436, (5S)-3-[2-[5-amino-1-[4-(2-fluorophenoxy)-2-methylphenyl]pyrazole-4-carbonyl]-5-fluoro-1H-indol-6-yl]-5-benzylimidazolidine-2,4-dione], the IC50 in test [1] (setting [4]) was 0.0017 µM; in test [2] (setting [4]) it was 0.23 µM; in test [3] (setting [4]) it was 0.035 µM.

`Cc1cc(Oc2ccccc2F)ccc1-n1ncc(C(=O)c2cc3cc(F)c(C4CCN(C(C)C)CC4)cc3[nH]2)c1N` [Example 4-2-010, [5-amino-1-[4-(2-fluorophenoxy)-2-methylphenyl]pyrazol-4-yl]-[5-fluoro-6-(1-propan-2-ylpiperidin-4-yl)-1H-indol-2-yl]methanone]: the figures for the IC50 in test [1] (setting [4]), in test [2] (setting [4]) and in test [3] (setting [4]) were 0.0012 µM, 0.0047 µM and 0.0019 µM, respectively.

`COc1cc2[nH]c(C(=O)c3cnn(-c4ccc(Oc5ccccc5F)cc4C)c3N)cc2cc1NS(C)(=O)=O` [Example 4-1-013, N-[2-[5-amino-1-[4-(2-fluorophenoxy)-2-methylphenyl]pyrazole-4-carbonyl]-6-methoxy-1H-indol-5-yl]methanesulfonamide]: the figures for the IC50 in test [1] (setting [4]), in test [2] (setting [4]) and in test [3] (setting [4]) were 0.00045 µM, 0.0026 µM and 0.0013 µM, respectively.

Take `Cc1cc(-n2ncc(C(=O)c3cc4cc(OCC(F)F)c(N5CCOCC5)cc4[nH]3)c2N)ccc1Oc1ccccc1F` [Example 5-1-169, [5-amino-1-[4-(2-fluorophenoxy)-3-methylphenyl]pyrazol-4-yl]-[5-(2,2-difluoroethoxy)-6-morpholin-4-yl-1H-indol-2-yl] methanone]: the results for the IC50 in test [1], in test [2] and in test [3] were 0.00088 µM, 0.1 µM and 0.046 µM, respectively.

In the case of `Cc1cc2cc(C(=O)c3cnn(-c4cnc(Oc5c(F)cccc5F)cc4C)c3N)[nH]c2cc1NS(=O)(=O)CC(=O)N1CCCC1` [Example 5-1-088, N-[2-[5-amino-1-[6-(2,6-difluorophenoxy)-4-methylpyridin-3-yl]pyrazole-4-carbonyl]-5-methyl-1H-indol-6-yl]-2-oxo-2-pyrrolidin-1-ylethanesulfonamide], the IC50 was 0.0022 µM in test [1], 0.027 µM in test [2] and 0.0028 µM in test [3].

On to `Cc1cc(Oc2ccccc2F)ccc1-n1ncc(C(=O)c2cc3cc(OC(F)F)c(N4CC5(CCCC5)NS4(=O)=O)cc3[nH]2)c1N` [Example 5-1-423, [5-amino-1-[4-(2-fluorophenoxy)-2-methylphenyl]pyrazol-4-yl]-[5-(difluoromethoxy)-6-(2,2-dioxo-2λ6-thia-1,3-diazaspiro[4.4]nonan-3-yl)-1H-indol-2-yl]methanone], for which the IC50 worked out at 0.004 µM in test [1] (setting [4]), 0.19 µM in test [2] (setting [4]) and 0.061 µM in test [3] (setting [4]).

As for `Cc1cc(Oc2c(F)cccc2F)ncc1-n1ncc(C(=O)c2cc3cc(OC4CCN(C(C)C)CC4)c(N)cc3[nH]2)c1N` [Example 5-1-183, [5-amino-1-[6-(2,6-difluorophenoxy)-4-methylpyridin-3-yl]pyrazol-4-yl]-[6-amino-5-(1-propan-2-ylpiperidin-4-yl)oxy-1H-indol-2-yl] methanone], the IC50 in test [1] is 0.00044 µM; in test [2], 0.0049 µM; in test [3], 0.0028 µM.
